According to patent US20100137313A1 (ASTRAZENECA AB, priority 2008, published 2010):

Target: S. pneumoniae Topoisomerase IV ATPase (ParE) (Streptococcus pneumoniae serotype 4, UniProt Q59961)
Test: S. pneumoniae Topoisomerase IV ATPase inhibition
Format: biochemical
Details: values marked * are an average of two or more data points, read-out: % Inh (13 μM) of S. pneumoniae Topoisomerase IV ATPase
Procedure, shortened: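 Phosphate release by ParE ATPase from S. pneumoniae read colorimetrically (malachite green, 650 nm), enzyme 1.25 nM, ATP 160 μM, salmon sperm DNA present, buffer 20 mM Tris pH 8.0 with 8 mM MgCl2. IC50 over 10 compound concentrations, EDTA (20 μM) and DMSO controls defining inhibition range.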

Chain of S. pneumoniae Topoisomerase IV ATPase (ParE) (Q59961 whole entry): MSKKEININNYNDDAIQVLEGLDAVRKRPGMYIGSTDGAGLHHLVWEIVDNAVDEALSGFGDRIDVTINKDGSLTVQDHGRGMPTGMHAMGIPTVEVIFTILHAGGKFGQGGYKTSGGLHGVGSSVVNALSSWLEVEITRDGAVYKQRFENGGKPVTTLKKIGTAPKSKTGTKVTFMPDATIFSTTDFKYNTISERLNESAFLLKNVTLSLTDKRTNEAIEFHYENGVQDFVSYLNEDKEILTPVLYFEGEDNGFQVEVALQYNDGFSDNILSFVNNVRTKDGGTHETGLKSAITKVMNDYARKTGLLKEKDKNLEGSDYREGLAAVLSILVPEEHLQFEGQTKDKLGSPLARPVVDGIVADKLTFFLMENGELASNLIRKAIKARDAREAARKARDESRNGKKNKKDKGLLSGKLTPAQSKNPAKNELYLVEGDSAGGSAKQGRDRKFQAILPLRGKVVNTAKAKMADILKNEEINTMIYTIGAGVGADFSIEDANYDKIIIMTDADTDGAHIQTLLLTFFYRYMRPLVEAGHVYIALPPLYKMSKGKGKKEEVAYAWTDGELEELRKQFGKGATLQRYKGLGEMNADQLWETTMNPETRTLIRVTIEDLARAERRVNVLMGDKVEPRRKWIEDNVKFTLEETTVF

Compound: COc1cc(C#N)cc(Nc2ncc(-c3cccc(/C=C/C(=O)O)c3)c(-n3ccc(C(F)(F)F)n3)n2)c1 [Example 728, (2E)-3-(3-{2-[(3-cyano-5-methoxyphenyl)amino]-4-[3-(trifluoromethyl)-1H-pyrazol-1-yl]pyrimidin-5-yl}phenyl)prop-2-enoic acid]
- inhibition at 13 µM: 100%

Compound: CCNS(=O)(=O)c1cncc(-c2cnc(Nc3ccc(F)c(Cl)c3)nc2-n2ccc(C(F)(F)F)n2)c1 [Example 1000, 5-(2-(3-Chloro-4-fluorophenylamino)-4-(3-(trifluoromethyl)-1H-pyrazol-1-yl)pyrimidin-5-yl)-N-ethylpyridine-3-sulfonamide]
- inhibition at 13 µM: 64%

Compound: O=C(O)c1ccc(-c2cnc(Nc3ccc(F)c(Cl)c3)nc2-n2ccnc2)s1 [Example 1111, 5-[2-[(3-chloro-4-fluorophenyl)-amino]-4-imidazol-1-ylpyrimidin-5-yl]thiophene-2-carboxylic acid]
- inhibition at 13 µM: 88%

Compound: CN(C)CCCNc1nc(Nc2ccc(F)c(Cl)c2)ncc1-c1ccc(N)nc1 [Example 21, 5-(6-aminopyridin-3-yl)-N^2-(3-chloro-4-fluorophenyl)-N^4-[3-(dimethylamino)propyl]pyrimidine-2,4-diamine]
- inhibition at 13 µM: 71.7%

Compound: COCCCNc1nc(Nc2ccc(F)c(Cl)c2)ncc1-c1nc(C)c(C(=O)OC)s1 [Example 505, methyl 2-{2-[(3-chloro-4-fluorophenyl)amino]-4-[(3-methoxypropyl)amino]pyrimidin-5-yl}-4-methyl-1,3-thiazole-5-carboxylate]
- inhibition at 13 µM: 19%

Compound: CC(=O)c1ccc(-c2cnc(Nc3ccc(F)c(Cl)c3)nc2NCCCN(C)C)s1 [Example 12, 1-{5-[2-(3-chloro-4-fluorophenylamino)-4-[3-(dimethylamino)propylamino)pyrimidin-5-yl]thiophen-2-yl}ethanone]
- inhibition at 13 µM: 108%

Compound: COc1cc(Nc2ncc(-c3cc(C(=O)NS(C)(=O)=O)c(=O)n(C)c3)c(-n3ccc(C(F)(F)F)n3)n2)cc(OC)c1 [Example 1019, 5-(2-(3,5-Dimethoxyphenylamino)-4-(3-(trifluoromethyl)-1H-pyrazol-1-yl)pyrimidin-5-yl)-1-methyl-N-(methylsulfonyl)-2-oxo-1,2-dihydropyridine-3-carboxamide]
- inhibition at 13 µM: 100%

Compound: COc1cc(Nc2ncc(-c3cccc(/C=C/C(=O)O)c3)c(-n3nc(C(F)(F)F)cc3C)n2)cc(OC)c1 [Example 616, (2E)-3-(3-{2-[(3,5-dimethoxyphenyl)amino]-4-[5-methyl-3-(trifluoromethyl)-1H-pyrazol-1-yl]pyrimidin-5-yl}phenyl)prop-2-enoic acid]
- inhibition at 13 µM: 99%

Compound: O=C(O)/C=C/c1cccc(-c2cnc(Nc3ccc(F)c(Cl)c3)nc2N2CCCCC2)c1 [Example 297, (E)-3-(3-(2-(3-chloro-4-fluorophenylamino)-4-(piperidin-1-yl)pyrimidin-5-yl)phenyl)acrylic acid]
- inhibition at 13 µM: 128%

Compound: Fc1ccc(Nc2ncc(-c3cncnc3)c(NCCc3ccccn3)n2)cc1Cl [Example 44, N^2-(3-chloro-4-fluorophenyl)-N^4-(2-pyridin-2-ylethyl)-5-pyrimidin-5-ylpyrimidine-2,4-diamine]
- inhibition at 13 µM: 78.4%

Compound: CN(C)CCCNc1nc(Nc2ccc(F)c(Cl)c2)ncc1-c1ccc(C(=O)N2CCCC(F)(F)C2)s1 [Example 370, (5-(2-(3-chloro-4-fluorophenylamino)-4-(3-(dimethylamino)propylamino)pyrimidin-5-yl)thiophen-2-yl) (3,3-difluoro-piperidin-1-yl) methanone]
- inhibition at 13 µM: 129%

Compound: COc1ncc(-c2cnc(Nc3ccc(F)c(Cl)c3)nc2NCc2ccncc2C)cn1 [Example 463, N2-(3-chloro-4-fluorophenyl)-2′-methoxy-N4-((3-methylpyridin-4-yl)methyl)-5,5′-bipyrimidine-2,4-diamine]
- inhibition at 13 µM: 67%

Compound: COc1cc(Nc2ncc(-c3cnc(OCCCS(C)(=O)=O)c(C(=O)NS(C)(=O)=O)c3)c(-n3ccc(C(F)(F)F)n3)n2)cc(OC)c1 [Example 971, (2-(3,5-dimethoxyphenylamino)-4-(3-(trifluoromethyl)-1H-pyrazol-1-yl)pyrimidin-5-yl)-N-(methylsulfonyl)-2-(3-(methylsulfonyl)propoxy)nicotinamide]
- inhibition at 13 µM: 100%

Compound: CCOC(=O)c1cncc(-c2cnc(Nc3ccc(F)c(Cl)c3)nc2N2CCN(C)CC2)c1 [Example 151, ethyl 5-(2-(3-chloro-4-fluorophenylamino)-4-(4-methylpiperazin-1-yl)pyrimidin-5-yl)nicotinate]
- inhibition at 13 µM: 50.1%

Compound: COc1ncc(-c2cnc(Nc3cc(C)cc(C)c3)nc2-n2ccc(C(F)(F)F)n2)cc1C(=O)O [Example 648, 5-{2-[(3,5-dimethylphenyl)amino]-4-[3-(trifluoromethyl)-1H-pyrazol-1-yl]pyrimidin-5-yl}-2-methoxypyridine-3-carboxylic acid]
- inhibition at 13 µM: 100%

Compound: O=C(O)C1CCCCN1c1cccc(-c2cnc(Nc3ccc(F)c(Cl)c3)nc2-n2ccc(C(F)(F)F)n2)c1 (stereo not drawn) [Example 602, 1-(3-{2-[(3-chloro-4-fluorophenyl)amino]-4-[3-(trifluoromethyl)-1H-pyrazol-1-yl]pyrimidin-5-yl}phenyl)piperidine-2-carboxylic acid]
- inhibition at 13 µM: 100%

Compound: O=C(O)c1cncc(-c2cnc(Nc3ccc(F)c(Cl)c3)nc2N[C@H]2CC[C@H](O)CC2)c1 [Example 255, 5-[2-[(3-chloro-4-fluorophenyl)amino]-4-[(4-hydroxycyclohexyl)-amino]pyrimidin-5-yl]pyridine-3-carboxylic acid]
- inhibition at 13 µM: 72.8%

Compound: O=C(O)c1cc(-c2cnc(Nc3ccc(F)c(Cl)c3)nc2N2CCOCC2)cc([N+](=O)[O-])c1 [Example 490, 3-{2-[(3-chloro-4-fluorophenyl)amino]-4-(morpholin-4-yl)pyrimidin-5-yl}-5-nitrobenzoic acid]
- inhibition at 13 µM: 100%

Compound: O=C(O)c1cncc(-c2cnc(Nc3ccc(F)c(Cl)c3)nc2NCC2CCCO2)c1 (stereo not drawn) [Example 235, 5-[2-[(3-chloro-4-fluorophenyl)amino]-4-(oxolan-2-ylmethylamino)pyrimidin-5-yl]pyridine-3-carboxylic acid]
- inhibition at 13 µM: 81.2%

Compound: COc1cc(Nc2ncc(-c3cnc(OC)c(C(=O)NS(=O)(=O)c4cccc(C(C)=O)c4)c3)c(-n3nc(C(F)(F)F)cc3C)n2)cc(OC)c1 [Example 844, N-[(3-acetylphenyl)sulfonyl]-5-{2-[(3,5-dimethoxyphenyl)amino]-4-[5-methyl-3-(trifluoromethyl)-1H-pyrazol-1-yl]pyrimidin-5-yl}-2-methoxypyridine-3-carboxamide]
- inhibition at 13 µM: 100%

Compound: COc1ncc(-c2cnc(Nc3cc(C)cc(C)c3)nc2-n2ccc(C(F)(F)F)n2)cc1C(=O)NS(=O)(=O)C(C)C [Example 826, 5-{2-[(3,5-dimethylphenyl)amino]-4-[3-(trifluoromethyl)-1H-pyrazol-1-yl]pyrimidin-5-yl}-2-methoxy-N-(propan-2-ylsulfonyl)pyridine-3-carboxamide]
- inhibition at 13 µM: 96%

Compound: COc1cc(Nc2ncc(-c3cncc(C(=O)O)c3)c(-n3nc(C)cc3C(F)F)n2)cc(OC)c1 [Example 1127, 5-(4-(5-(difluoromethyl)-3-methyl-1H-pyrazol-1-yl)-2-(3,5-dimethoxyphenylamino)pyrimidin-5-yl)nicotinic acid]
- inhibition at 13 µM: 100%

Compound: Cc1cc(C(F)(F)F)nn1-c1nc(Nc2ccc(F)c(Cl)c2)ncc1-c1cc(C(=O)O)c(=O)n(CCN2CCOCC2)c1 [Example 1076, 5-(2-(3-Chloro-4-fluorophenylamino)-4-(5-methyl-3-(trifluoromethyl)-1H-pyrazol-1-yl)pyrimidin-5-yl)-1-(2-morpholinoethyl)-2-oxo-1,2-dihydrpyridine-3-carboxylic acid]
- inhibition at 13 µM: 99%

Compound: Cc1cc(C(F)(F)F)nn1-c1nc(Nc2ccc(F)c(Cl)c2)ncc1-c1cncc(C(=O)NCCNS(C)(=O)=O)c1 [Example 925, 5-(2-(3-chloro-4-fluorophenylamino)-4-(5-methyl-3-(trifluoromethyl)-1H-pyrazol-1-yl)pyrimidin-5-yl)-N-(2-(methylsulfonamido)ethyl)nictinamide]
- inhibition at 13 µM: 88%

Compound: Fc1ccc(Nc2ncc(-c3cncnc3)c(NCC3CCCO3)n2)cc1Cl (stereo not drawn) [Example 51, N-(3-chloro-4-fluorophenyl)-N′-(oxolan-2-ylmethyl)-5-pyrimidin-5-ylpyrimidine-2,4-diamine]
- inhibition at 13 µM: 88.8%

Compound: COc1cc(Nc2ncc(-c3cnc(OCCS(C)(=O)=O)c(C(=O)O)c3)c(-n3nc(C(F)(F)F)cc3C)n2)cc(OC)c1 [Example 965, 5-(2-(3,5-dimethoxyphenylamino)-4-(5-methyl-3-(trifluoromethyl)-1H-pyrazol-1-yl)pyrimidin-5-yl)-2-(2-(methylsulfonyl)ethoxy)nicotinic acid]
- inhibition at 13 µM: 100%

Compound: Cc1ccc(Nc2ncc(-c3ccc(C(=O)O)s3)c(NCCCN(C)C)n2)cc1C#N [Example 337, 5-(2-(3-cyano-4-methylphenylamino)-4-(3-(dimethylamino)propylamino)pyrimidin-5-yl) thiophene-2-carboxylic acid]
- inhibition at 13 µM: 64.4%

Compound: Cn1cc(CNc2nc(Nc3ccc(F)c(Cl)c3)ncc2-c2cncc(C(=O)O)c2)cn1 [Example 282, 5-(2-(3-chloro-4-fluorophenylamino)-4-((1-methyl-1H-pyrazol-4-yl)methylamino)pyrimidin-5-yl)nicotinic acid]
- inhibition at 13 µM: 117%

Compound: COC(=O)c1cc(-c2cnc(Nc3ccc(F)c(Cl)c3)nc2-n2ccc(C(F)(F)F)n2)cnc1OC [Example 1010, Methyl 5-(2-(3-chloro-4-fluorophenylamino)-4-(3-(trifluoromethyl)-1H-pyrazol-1-yl)pyrimidin-5-yl)-2-methoxynicotinate]
- inhibition at 13 µM: 81%

Compound: CONC(=O)c1cccc(-c2cnc(Nc3ccc(F)c(Cl)c3)nc2NCCCN(C)C)c1 [Example 360, 3-(2-(3-chloro-4-fluorophenylamino)-4-(3-(dimethylamino)propylamino)pyrimidin-5-yl)-N-methoxybenzamide]
- inhibition at 13 µM: 112%
